Laboratory results as given in PubChem BioAssay AID1963984 (Molecular Pharmacology Branch, DTP, NCI, 2024).

Tested on: 233499-124-R-J3-PDC spheroids with HUVEC/MSC, viability
Experiment: Anticancer human tumor 233499-124-R-J3-PDC patient-derived colon adenocarcinoma cell line growth inhibition [PI3K]
Conditions: for IC50: curve of first compound; for viability, T/C: stronger effect = lower value
Text: Combinatorial screen of targeted agents with the PI3K inhibitors inavolisib, alpelisib, duvelisib, and copanlisib in multi-cell type tumor spheroids
A high-throughput screen of multi-cell type tumor spheroids was designed to identify active combinations of targeted small molecules and PI3K pathway inhibitors. Complex spheroids include a stromal component modeled by human endothelial cells (HUVEC) and fibroblasts modeled by human mesenchymal stem cells (MSCs). The concentration ranges selected for each drug and investigational agent were based upon clinically achievable concentrations if the clinical Cmax of the agent was known.
Compounds. The drugs and investigational agents: inavolisib (NSC800729), alpelisib (NSC765974), duvelisib (NSC772469), copanlisib (NSC816437), ipatasertib (NSC767898), afuresertib (NSC778305), talazoparib (NSC767125), sapanisertib (NSC764658), selumetinib (NSC741078), tovorafenib (DAY101, NSC766906), vemurafenib (NSC761431), ravoxertinib (NSC781343), sotorasib (NSC818433), MRTX1133 (NSC 836407), abemaciclib (NSC 768073), palbociclib (NSC758247), venetoclax (NSC 766270), SY5609 (NSC837396), enzalutamide (NSC755605), and darolutamide (NSC825331), were obtained from the National Cancer Institute (NCI) Developmental Therapeutics Program Chemical Repository. The FDA-approved anticancer drug set is available from the NCI Developmental Therapeutics Program. […] The stock solutions were prepared in dimethyl sulfoxide (DMSO, Sigma-Aldrich, St. Louis, MO, cat. D2650) at 800-fold the tested concentration and stored at -70 degrees C prior to their use. All drugs and investigational agents were tested over a range starting from a high concentration at or near the clinical Cmax and decreasing in half-log increments. If the clinical Cmax for an agent had not been determined, the highest concentration tested was 10 microM.
Cell Culture. All cells were maintained in an incubator at 37 degrees C and 5% CO2 with 95% humidity. The PDC lines were cultured according to standard operating procedures established by the NCI PDMR (https://pdmr.cancer.gov/sops/default.htm). All PDCs were thawed and cultured in Matrigel-coated flasks prepared with a working solution of 1X Ham's F-12 nutrient mix, without supplementation (Invitrogen, Waltham, MA, cat. 11765054), 100 U/mL penicillin-streptomycin (Invitrogen, cat. 15140122), and 2.5% Matrigel (Corning Inc., Corning, NY, cat. 354248) for the first three passages. The 354836-022-R-J1-PDC, 475296-252-R-J1-PDC, and 997726-040-R-J2-PDC lines were cultured in 6A media, which includes advanced DMEM/F-12 (Thermo Fisher Scientific, cat. 12634028), 10 mM HEPES (Thermo Fisher Scientific, cat. 15630080), 1X GlutaMAX supplement (Thermo Fisher Scientific, cat. 35050061), 0.1 mg/mL primocin (InvivoGen, San Diego, CA, cat. ant-pm-2), 10% defined fetal bovine serum, heat inactivated (HyClone Laboratories Inc., Logan, UT, cat. SH30070.03HI), 50% L-WRN conditioned media (ATCC, cat. CRL-3276), 1.25 mM N-Acetyl-L-cysteine (Sigma-Aldrich, cat. A9165), 10 mM nicotinamide (Sigma-Aldrich, cat. N0636), 1X B-27 supplement (Thermo Fisher Scientific, cat. 17504044), 1X N-2 supplement (Thermo Fisher Scientific, cat. 17502048), and 10 microM Y-27632 dihydrochloride (Tocris Bioscience, Bristol, United Kingdom, cat. 1254). The 624824-186-R-J2-PDC line was cultured in 6C/Colon 1B media, which includes all 6A media components plus 50 ng/mL human EGF recombinant protein (Thermo Fisher Scientific, cat. PHG0311). […]

[1] = second compound 0.00316 µM, first compound 0.0316 µM
[2] = second compound 0.00316 µM, first compound 0.1 µM
[3] = second compound 0.00316 µM, first compound 0.316 µM
[4] = second compound 0.00316 µM, first compound 1 µM
[5] = second compound 0.00316 µM, first compound 3.16 µM
[6] = second compound 0.00316 µM, first compound 10 µM
[7] = second compound 0.01 µM, first compound 0.0316 µM
[8] = second compound 0.01 µM, first compound 0.1 µM
[9] = second compound 0.01 µM, first compound 0.316 µM
[10] = second compound 0.01 µM, first compound 1 µM
[11] = second compound 0.01 µM, first compound 3.16 µM
[12] = second compound 0.01 µM, first compound 10 µM
[13] = second compound 0.0316 µM, first compound 0.0316 µM
[14] = second compound 0.0316 µM, first compound 0.1 µM
[15] = second compound 0.0316 µM, first compound 0.316 µM
[16] = second compound 0.0316 µM, first compound 1 µM
[17] = second compound 0.0316 µM, first compound 3.16 µM
[18] = second compound 0.0316 µM, first compound 10 µM
[19] = second compound 0.1 µM, first compound 0.0316 µM
[20] = second compound 0.1 µM, first compound 0.1 µM
[21] = second compound 0.1 µM, first compound 0.316 µM
[22] = second compound 0.1 µM, first compound 1 µM
[23] = second compound 0.1 µM, first compound 3.16 µM
[24] = second compound 0.1 µM, first compound 10 µM
[25] = second compound 0.316 µM, first compound 0.0316 µM
[26] = second compound 0.316 µM, first compound 0.1 µM
[27] = second compound 0.316 µM, first compound 0.316 µM
[28] = second compound 0.316 µM, first compound 1 µM
[29] = second compound 0.316 µM, first compound 3.16 µM
[30] = second compound 0.316 µM, first compound 10 µM
[31] = second compound 1 µM, first compound 0.0316 µM
[32] = second compound 1 µM, first compound 0.1 µM
[33] = second compound 1 µM, first compound 0.316 µM
[34] = second compound 1 µM, first compound 1 µM
[35] = second compound 1 µM, first compound 3.16 µM
[36] = second compound 1 µM, first compound 10 µM
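Further: spheroids exposed to agents for seven days before readout.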
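Wherever viability, T/C is given: percent viability relative to DMSO vehicle control taken as 100%.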

CC1(C)CCC(CN2CCN(c3ccc(C(=O)NS(=O)(=O)c4ccc(NCC5CCOCC5)c([N+](=O)[O-])c4)c(Oc4cnc5[nH]ccc5c4)c3)CC2)=C(c2ccc(Cl)cc2)C1 + CC(Nc1ccc2c(c1)OCCn1cc(N3C(=O)OCC3C(F)F)nc1-2)C(N)=O
IC50 (second compound 0.00316 µM): 5.38 µM | IC50 (second compound 0.01 µM): 4.1 µM | IC50 (second compound 0.0316 µM): 4.86 µM | IC50 (second compound 0.1 µM): 4.85 µM | IC50 (second compound 0.316 µM): 2.16 µM | IC50 (second compound 1 µM): 3.2 µM | viability, T/C [1]: 99.3% | viability, T/C [2]: 94.1% | viability, T/C [3]: 71.9% | viability, T/C [4]: 109% | viability, T/C [5]: 90.1% | viability, T/C [6]: 3.01% | viability, T/C [7]: 86% | viability, T/C [8]: 85.5% | viability, T/C [9]: 96.3% | viability, T/C [10]: 74.7% | viability, T/C [11]: 65.7% | viability, T/C [12]: 2.45% | viability, T/C [13]: 79.3% | viability, T/C [14]: 66.2% | viability, T/C [15]: 75.8% | viability, T/C [16]: 73.6% | viability, T/C [17]: 93.5% | viability, T/C [18]: 3.53% | viability, T/C [19]: 60.9% | viability, T/C [20]: 85.6% | viability, T/C [21]: 86.5% | viability, T/C [22]: 81% | viability, T/C [23]: 78.8% | viability, T/C [24]: 1.51% | viability, T/C [25]: 75.8% | viability, T/C [26]: 69.3% | viability, T/C [27]: 65.2% | viability, T/C [28]: 77.2% | viability, T/C [29]: 39.2% | viability, T/C [30]: 4.28% | viability, T/C [31]: 66.8% | viability, T/C [32]: 49% | viability, T/C [33]: 47.4% | viability, T/C [34]: 58.2% | viability, T/C [35]: 50.1% | viability, T/C [36]: 2.38%

C[C@@H](NC(=O)c1ncnc(N)c1Cl)c1ncc(C(=O)Nc2cc(C(F)(F)F)c(Cl)cn2)s1 + CC(Nc1ccc2c(c1)OCCn1cc(N3C(=O)OCC3C(F)F)nc1-2)C(N)=O
IC50 (second compound 0.00316 µM): > 10 µM | IC50 (second compound 0.01 µM): > 10 µM | IC50 (second compound 0.0316 µM): > 10 µM | IC50 (second compound 0.1 µM): > 10 µM | IC50 (second compound 0.316 µM): > 10 µM | IC50 (second compound 1 µM): > 10 µM | viability, T/C [1]: 102% | viability, T/C [2]: 112% | viability, T/C [3]: 113% | viability, T/C [4]: 105% | viability, T/C [5]: 126% | viability, T/C [6]: 90.5% | viability, T/C [7]: 113% | viability, T/C [8]: 119% | viability, T/C [9]: 130% | viability, T/C [10]: 105% | viability, T/C [11]: 111% | viability, T/C [12]: 102% | viability, T/C [13]: 99.4% | viability, T/C [14]: 119% | viability, T/C [15]: 109% | viability, T/C [16]: 98.6% | viability, T/C [17]: 113% | viability, T/C [18]: 74.5% | viability, T/C [19]: 87.2% | viability, T/C [20]: 84.6% | viability, T/C [21]: 108% | viability, T/C [22]: 106% | viability, T/C [23]: 102% | viability, T/C [24]: 92% | viability, T/C [25]: 82.8% | viability, T/C [26]: 81.2% | viability, T/C [27]: 85.6% | viability, T/C [28]: 95.2% | viability, T/C [29]: 102% | viability, T/C [30]: 65.8% | viability, T/C [31]: 53.5% | viability, T/C [32]: 68.5% | viability, T/C [33]: 52.5% | viability, T/C [34]: 83% | viability, T/C [35]: 77.2% | viability, T/C [36]: 56.6%

Cn1ncnc1[C@H]1c2n[nH]c(=O)c3cc(F)cc(c23)N[C@@H]1c1ccc(F)cc1 + CC(Nc1ccc2c(c1)OCCn1cc(N3C(=O)OCC3C(F)F)nc1-2)C(N)=O
IC50 (second compound 0.00316 µM): > 0.1 µM | IC50 (second compound 0.01 µM): 0.0966 µM | IC50 (second compound 0.0316 µM): > 0.1 µM | IC50 (second compound 0.1 µM): > 0.1 µM | IC50 (second compound 0.316 µM): > 0.1 µM | IC50 (second compound 1 µM): 0.0269 µM | viability, T/C (second compound 0.00316 µM, first compound 0.000316 µM): 86.6% | viability, T/C (second compound 0.00316 µM, first compound 0.001 µM): 109% | viability, T/C (second compound 0.00316 µM, first compound 0.00316 µM): 70% | viability, T/C (second compound 0.00316 µM, first compound 0.01 µM): 105% | viability, T/C [1]: 84.3% | viability, T/C [2]: 63.4% | viability, T/C (second compound 0.01 µM, first compound 0.000316 µM): 77.7% | viability, T/C (second compound 0.01 µM, first compound 0.001 µM): 111% | viability, T/C (second compound 0.01 µM, first compound 0.00316 µM): 88.3% | viability, T/C (second compound 0.01 µM, first compound 0.01 µM): 92.1% | viability, T/C [7]: 97% | viability, T/C [8]: 48.7% | viability, T/C (second compound 0.0316 µM, first compound 0.000316 µM): 92.6% | viability, T/C (second compound 0.0316 µM, first compound 0.001 µM): 81.9% | viability, T/C (second compound 0.0316 µM, first compound 0.00316 µM): 63.6% | viability, T/C (second compound 0.0316 µM, first compound 0.01 µM): 73.4% | viability, T/C [13]: 83.8% | viability, T/C [14]: 61.7% | viability, T/C (second compound 0.1 µM, first compound 0.000316 µM): 97.5% | viability, T/C (second compound 0.1 µM, first compound 0.001 µM): 92.3% | viability, T/C (second compound 0.1 µM, first compound 0.00316 µM): 83.3% | viability, T/C (second compound 0.1 µM, first compound 0.01 µM): 72.8% | viability, T/C [19]: 87.9% | viability, T/C [20]: 66.3% | viability, T/C (second compound 0.316 µM, first compound 0.000316 µM): 71.9% | viability, T/C (second compound 0.316 µM, first compound 0.001 µM): 94.2% | viability, T/C (second compound 0.316 µM, first compound 0.00316 µM): 75% | viability, T/C (second compound 0.316 µM, first compound 0.01 µM): 70.8% | viability, T/C [25]: 60.2% | viability, T/C [26]: 58.3% | viability, T/C (second compound 1 µM, first compound 0.000316 µM): 72.2% | viability, T/C (second compound 1 µM, first compound 0.001 µM): 58.1% | viability, T/C (second compound 1 µM, first compound 0.00316 µM): 58.3% | viability, T/C (second compound 1 µM, first compound 0.01 µM): 58.2% | viability, T/C [31]: 52.1% | viability, T/C [32]: 33%
